Experimental data reported in PubChem BioAssay AID330 (DTP/NCI, 2004).
Values joined by “and” are separate entries in the source; they are usually repeats but may differ in a detail not shown here. Identical values can stand only once. Inconclusive results and toxic doses are left out.

Tested on: P388 leukemia ip, CD2F1 mice, survival T/C
Experiment: NCI In Vivo Anticancer Drug Screen. Data for tumor model P388 Leukemia (intraperitoneal) in CD2F1 (CDF1) mice
Conditions: endpoint: median survival time, higher = longer survival
Method in brief: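 Mice carrying the transplanted tumor received test compound or vehicle. Survival was recorded in each group, and the value is the treated-group measurement divided by that of the vehicle-treated control group.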

[1] = dose: 50.0 mg/kg/injection, schedule: Q01DX005 (ip), vehicle: saline with Tween-80
[2] = dose: 100.0 mg/kg/injection, schedule: Q01DX005 (ip), vehicle: saline with Tween-80
[3] = dose: 25.0 mg/kg/injection, schedule: Q01DX009 (ip), vehicle: saline with Tween-80
[4] = dose: 50.0 mg/kg/injection, schedule: Q01DX009 (ip), vehicle: saline with Tween-80
[5] = dose: 100.0 mg/kg/injection, schedule: Q01DX009 (ip), vehicle: saline with Tween-80
[6] = dose: 50.0 mg/kg/injection, schedule: Q01DX005 (ip), vehicle: saline
[7] = dose: 100.0 mg/kg/injection, schedule: Q01DX005 (ip), vehicle: saline
[8] = dose: 50.0 mg/kg/injection, schedule: Q01DX009 (ip), vehicle: saline
[9] = dose: 100.0 mg/kg/injection, schedule: Q01DX009 (ip), vehicle: saline

COC(=O)/C1=C/CCC2=CC(CCC1)OC2=O (centres undefined)
T/C (dose: 35.75 mg/kg/injection, schedule: Q01DX005 (ip), vehicle: Klucel (hydroxypropylcellulose) (HPC)): 103 % of control
T/C (dose: 71.5 mg/kg/injection, schedule: Q01DX005 (ip), vehicle: Klucel (hydroxypropylcellulose) (HPC)): 99 % of control
T/C (dose: 143.0 mg/kg/injection, schedule: Q01DX005 (ip), vehicle: Klucel (hydroxypropylcellulose) (HPC)): 97 % of control

CCCCOP(=O)(OCCCC)C(CC(=O)N(CCCC)CCCC)C(=O)N(CCCC)CCCC (centres undefined)
T/C [1]: 98 % of control
T/C [2]: 102 % of control

CSC(=S)NC#N
T/C [3]: 111 % of control
T/C [4]: 100 % of control
T/C [5]: 107 % of control
T/C (dose: 200.0 mg/kg/injection, schedule: Q01DX009 (ip), vehicle: saline with Tween-80): 108 % of control

CC1(C)OCC(C2OC3OC(C)(C)OC3C2N2CCC(O)O2)O1 (centres undefined)
T/C (dose: 97.75 mg/kg/injection, schedule: Q04DX002 (ip), vehicle: saline): 103 % of control
T/C (dose: 195.5 mg/kg/injection, schedule: Q04DX002 (ip), vehicle: saline): 109 % of control
T/C (dose: 391.0 mg/kg/injection, schedule: Q04DX002 (ip), vehicle: saline): 105 % of control

Brc1ccc(C[N+]23CN4CN(CN(C4)C2)C3)cc1
T/C [4]: 100 % of control
T/C [5]: 120 % of control
T/C (dose: 100.0 mg/kg/injection, schedule: Q04DX003 (ip), vehicle: saline): 110 % of control
T/C (dose: 200.0 mg/kg/injection, schedule: Q04DX003 (ip), vehicle: saline): 110 % of control

CC[C@]12CN3CCc4c([nH]c5ccccc45)[C@@](C(=O)OC)(c4cc5c(cc4OC)N(C)[C@H]4[C@@](O)(C(=O)OC)[C@H](OC(C)=O)[C@]6(CC)C=CCN7CC[C@]54[C@@H]76)CC(C3)[C@H]1O2 (some centres undefined)
T/C (dose: 0.05 mg/kg/injection, schedule: Q01DX009 (ip), vehicle: saline): 101 % of control
T/C (dose: 0.1 mg/kg/injection, schedule: Q01DX009 (ip), vehicle: saline): 104 % of control
T/C (dose: 0.2 mg/kg/injection, schedule: Q01DX009 (ip), vehicle: saline): 104 % of control
T/C (dose: 0.4 mg/kg/injection, schedule: Q01DX009 (ip), vehicle: saline): 103 % of control
T/C (dose: 0.5 mg/kg/injection, schedule: Q01DX001 (ip), vehicle: water): 104 % of control
T/C (dose: 0.75 mg/kg/injection, schedule: Q01DX009 (ip), vehicle: saline): 114 % of control
T/C (dose: 0.8 mg/kg/injection, schedule: Q01DX009 (ip), vehicle: saline): 107 % of control
T/C (dose: 1.0 mg/kg/injection, schedule: Q01DX001 (ip), vehicle: water): 95 % of control
T/C (dose: 1.6 mg/kg/injection, schedule: Q01DX009 (ip), vehicle: saline): 113 % of control
T/C (dose: 2.0 mg/kg/injection, schedule: Q01DX001 (ip), vehicle: water): 108 % of control
T/C (dose: 3.0 mg/kg/injection, schedule: Q01DX009 (ip), vehicle: saline): 117 % of control
T/C (dose: 3.2 mg/kg/injection, schedule: Q01DX009 (ip), vehicle: saline): 110 % of control
T/C (dose: 4.0 mg/kg/injection, schedule: Q01DX001 (ip), vehicle: water): 116 % of control
T/C (dose: 6.0 mg/kg/injection, schedule: Q01DX009 (ip), vehicle: saline sonified): 173 % of control
T/C (dose: 6.0 mg/kg/injection, schedule: Q01DX009 (ip), vehicle: saline): 156 % of control and 160 % of control
T/C (dose: 6.4 mg/kg/injection, schedule: Q01DX009 (ip), vehicle: saline): 120 % of control
T/C (dose: 8.0 mg/kg/injection, schedule: Q01DX001 (ip), vehicle: water): 122 % of control
T/C (dose: 12.0 mg/kg/injection, schedule: Q01DX009 (ip), vehicle: saline sonified): 121 % of control
T/C (dose: 12.0 mg/kg/injection, schedule: Q01DX009 (ip), vehicle: saline): 176 % of control and 220 % of control
T/C (dose: 24.0 mg/kg/injection, schedule: Q01DX009 (ip), vehicle: saline): 117 % of control

COc1ccccc1N(CCCO)C(=S)Nc1ccccc1
T/C (dose: 25.0 mg/kg/injection, schedule: Q01DX009 (ip), vehicle: other): 105 % of control
T/C (dose: 50.0 mg/kg/injection, schedule: Q01DX009 (ip), vehicle: other): 110 % of control
T/C (dose: 100.0 mg/kg/injection, schedule: Q01DX009 (ip), vehicle: other): 122 % of control
T/C (dose: 200.0 mg/kg/injection, schedule: Q01DX009 (ip), vehicle: other): 111 % of control
T/C (dose: 400.0 mg/kg/injection, schedule: Q01DX009 (ip), vehicle: other): 111 % of control

COC(=O)c1ccc(C)[n+](C2OC(COC(=O)c3ccccc3)C(OC(=O)c3ccccc3)C2OC(=O)c2ccccc2)c1 (centres undefined)
T/C (dose: 50.0 mg/kg/injection, schedule: Q01DX005 (ip), vehicle: saline + Tween-80 + alcohol): 100 % of control
T/C (dose: 100.0 mg/kg/injection, schedule: Q01DX005 (ip), vehicle: saline + Tween-80 + alcohol): 100 % of control
T/C (dose: 200.0 mg/kg/injection, schedule: Q01DX005 (ip), vehicle: saline + Tween-80 + alcohol): 98 % of control

CCCSCCCC(=O)O
T/C (dose: 50.0 mg/kg/injection, schedule: Q01DX009 (ip), vehicle: Klucel (hydroxypropylcellulose) (HPC)): 100 % of control
T/C (dose: 100.0 mg/kg/injection, schedule: Q01DX009 (ip), vehicle: Klucel (hydroxypropylcellulose) (HPC)): 100 % of control
T/C (dose: 200.0 mg/kg/injection, schedule: Q01DX009 (ip), vehicle: Klucel (hydroxypropylcellulose) (HPC)): 104 % of control

C1=C(C2CCCC3[C@@H]4C[C@@H](CN23)C2CCCCN2C4)CCC2[C@H]3C[C@H](CN12)C1CCCCN1C3 (some centres undefined)
T/C (dose: 3.75 mg/kg/injection, schedule: Q01DX005 (ip), vehicle: Klucel (hydroxypropylcellulose) (HPC)): 106 % of control
T/C (dose: 7.5 mg/kg/injection, schedule: Q01DX005 (ip), vehicle: Klucel (hydroxypropylcellulose) (HPC)): 104 % of control
T/C (dose: 15.0 mg/kg/injection, schedule: Q01DX005 (ip), vehicle: Klucel (hydroxypropylcellulose) (HPC)): 110 % of control and 96 % of control
T/C (dose: 30.0 mg/kg/injection, schedule: Q01DX005 (ip), vehicle: Klucel (hydroxypropylcellulose) (HPC)): 100 % of control

CC1=N[C@@H](N2CCOCC2)[C@H](N2CCOCC2)N1c1ccccc1
T/C [6]: 100 % of control
T/C [7]: 107 % of control
T/C (dose: 200.0 mg/kg/injection, schedule: Q01DX005 (ip), vehicle: saline): 102 % of control

O=C1CSc2cc(F)ccc2N1
T/C [8]: 91 % of control
T/C [9]: 91 % of control
T/C (dose: 200.0 mg/kg/injection, schedule: Q01DX009 (ip), vehicle: saline): 97 % of control

CCCCC1N=CNc2c1ccc1c2[nH]c2ccccc21 (centres undefined)
T/C (dose: 12.5 mg/kg/injection, schedule: Q04DX002 (ip), vehicle: saline with Tween-80): 101 % of control
T/C (dose: 25.0 mg/kg/injection, schedule: Q04DX002 (ip), vehicle: saline with Tween-80): 99 % of control
T/C (dose: 50.0 mg/kg/injection, schedule: Q04DX002 (ip), vehicle: saline with Tween-80): 111 % of control

COc1ccccc1-n1c(=O)c(N=Nc2ccccc2Cl)c(O)n(-c2ccccc2Cl)c1=S
T/C (dose: 100.0 mg/kg/injection, schedule: Q01DX001 (ip), vehicle: Klucel (hydroxypropylcellulose) (HPC)): 101 % of control
T/C (dose: 200.0 mg/kg/injection, schedule: Q01DX001 (ip), vehicle: Klucel (hydroxypropylcellulose) (HPC)): 100 % of control
T/C (dose: 400.0 mg/kg/injection, schedule: Q01DX001 (ip), vehicle: Klucel (hydroxypropylcellulose) (HPC)): 101 % of control

N/C(Cc1noc2ccc(F)cc12)=N\O
T/C [8]: 107 % of control
T/C [9]: 107 % of control

Cc1cc(N)c(C)c(C)c1O
T/C [3]: 113 % of control
T/C (dose: 25.0 mg/kg/injection, schedule: Q04DX003 (ip), vehicle: saline with Tween-80): 100 % of control
T/C [4]: 118 % of control
T/C (dose: 50.0 mg/kg/injection, schedule: Q04DX003 (ip), vehicle: saline with Tween-80): 110 % of control
T/C (dose: 100.0 mg/kg/injection, schedule: Q04DX003 (ip), vehicle: saline with Tween-80): 110 % of control

COc1cc2c3c(c1)-c1c(ccc(OC)c1O)CC3N(C)CC2 (centres undefined)
T/C (dose: 6.25 mg/kg/injection, schedule: Q04DX003 (ip), vehicle: DMSO): 101 % of control
T/C (dose: 12.5 mg/kg/injection, schedule: Q04DX003 (ip), vehicle: DMSO): 101 % of control
T/C (dose: 25.0 mg/kg/injection, schedule: Q04DX003 (ip), vehicle: DMSO): 100 % of control
T/C (dose: 50.0 mg/kg/injection, schedule: Q04DX003 (ip), vehicle: DMSO): 100 % of control

COC1(OC)C=NNc2nncn21
T/C [6]: 105 % of control
T/C [7]: 107 % of control

CNc1ccccc1Br
T/C [1]: 100 % of control
T/C [2]: 100 % of control
T/C (dose: 200.0 mg/kg/injection, schedule: Q01DX005 (ip), vehicle: saline with Tween-80): 100 % of control
